Where a SMILES comes first, the peptide text is derived from it. [ ]: non-standard residue; d: D form. The star is where a group is joined. DON = [N-]=[N+]=CC(=O)CC[C@H](N)C(=O)O; Cbz = O=C(OCc1ccccc1)*
What was measured:
TG2 = target: T1, TG2 (Homo sapiens, UniProt P21980); experiment: TG2 interaction and TG2 activity in Caco-2 cells; type: cell-based; details: Caco-2 cells
T1 construct: Immunoprecipitations of endogenous proteins were performed on 500 μg of lysates from Caco-2 cells; host or cells: Caco-2
T1 sequence (P21980 1-687): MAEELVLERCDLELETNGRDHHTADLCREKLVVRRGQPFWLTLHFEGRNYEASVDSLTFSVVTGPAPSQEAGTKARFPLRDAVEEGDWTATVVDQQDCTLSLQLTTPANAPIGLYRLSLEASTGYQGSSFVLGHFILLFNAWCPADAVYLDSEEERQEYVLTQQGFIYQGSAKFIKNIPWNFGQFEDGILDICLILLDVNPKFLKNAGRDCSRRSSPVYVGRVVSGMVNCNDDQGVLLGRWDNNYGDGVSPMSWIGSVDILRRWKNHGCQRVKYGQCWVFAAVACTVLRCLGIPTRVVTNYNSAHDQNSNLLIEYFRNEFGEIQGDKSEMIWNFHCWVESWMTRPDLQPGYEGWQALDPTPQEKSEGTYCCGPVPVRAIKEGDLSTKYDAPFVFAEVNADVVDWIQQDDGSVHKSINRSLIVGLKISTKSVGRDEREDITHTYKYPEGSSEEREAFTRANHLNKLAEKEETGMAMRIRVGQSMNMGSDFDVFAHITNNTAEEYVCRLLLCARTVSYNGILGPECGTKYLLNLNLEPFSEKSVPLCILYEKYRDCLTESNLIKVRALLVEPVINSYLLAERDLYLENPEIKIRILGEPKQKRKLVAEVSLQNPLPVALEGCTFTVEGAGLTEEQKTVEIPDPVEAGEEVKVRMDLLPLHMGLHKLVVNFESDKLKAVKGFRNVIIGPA
Procedure: Human colon adenocarcinoma-derived Caco-2 and T84 cells were obtained from the ATCC. Cells were maintained in T25 flask in Modified Eagle Medium (MEM) for Caco-2, or Ham's F12+DMEM (1:1) for T84, supplemented with 10% fetal bovine serum (FBS), 2 mM Glutamine+1% Non Essential Amino Acids (NEAA) and the antibiotics penicillin\streptomycin (100 units/ml) (all reagents from Lonza) (Luciani, A., et al. 2010. Cells were grown in Transwells (Corning, 3470 or 3460) under the normal condition (Luciani, A., et al. 2012). Briefly, 8×10^4 or 5×10^5 cells were seeded in 6.5-mm diameter or 12-mm diameter, respectively, and grown until the RT reached 800 to 1,200 Ω·cm2. Transwells with a pore size of 0.4 μm were used. Medium in both the apical and basolateral chambers was changed every other day. Cells were treated with 20 μg/ml of either α-gliadin peptide P31-43 or […] or scrambled PGAV or modified P31-43 either biotin-tagged or not, for different time point (from 1 h short challenge up to 24 h). Cells were also treated with 50 or 100 μg/ml of P57-68 or PGAV peptides for 3 h. Caco-2 or T84 cells were also treated with: CFTR potentiators VX-770 (10 μM) or VX-532 (20 μM) (Selleck chemicals) or Genistein (10 μM) (Sigma-Aldrich) or in presence or absence of CFTR inhibitor172 (CFTRinh172, 20 μM) or 3-methyl-adenine (3-MA, 20 μM) (Calbiochem), Z-DON (20 nM, Zedira) or BAPTA-AM (10 μM, Calbiochem).
The whole lysate or membrane fraction proteins of cell lines and mice intestine homogenates were obtained from treated and untreated cells or mice as described. The equal amount of protein were resolved by SDS-PAGE gel and blotted with antibodies against: SQSTM1, (Sigma Aldrich, 108k4767) 1:1000, PPARγ (Santa Cruz Biotechnology, sc7273) 1:500, BECN1 (Abcam, ab58878) 1:1000, CFTR clone M3A7 (Abcam, ab4067) 1:500, phospho-ERK1/2 (php42/44, Cell Signaling Technology, #91101) 1:1000, UVRAG (Santa Cruz Biotechnology sc8215) 1:1000, NHERF-1 (BD, 611161) 1:1000, EZRIN (BD, 610603) 1:1000, hVps34 (SigmaV9764) 1:300, biotin (Abcam, ab1227) 1:2000, PKAr2a (BD, 610625) 1:500, Ubiquitin (Cell Signaling clone P4D1, #3936) 1:1000, CHIP (Calbiochem PC711) 1:500, Caspase-1 p10 (M-20) (Santa Cruz Biotechnology, sc-514) 1:200, NLRP3 (Abcam, ab4207), 1:500, IDO1 (monoclonal; cv152) 1:1000^[80], used as primary antibodies. Normalization was performed by probing the membrane with anti-β-actin (Cell Signaling, #4970) 1:1000, anti-Gapdh (Sigma-Aldrich, G8795) 1:1000 and anti-flottilin (Abcam ab15148) 1:1000 antibodies. Immunoprecipitations of endogenous proteins were performed on 500 μg of lysates from Caco-2 cells. The proteins were incubated for 12-18 h at 4° C. with 10 ug\ml of specific antibody followed by the addition of Protein A/G-agarose beads for 4 h at 4° C. The beads were then washed three times with lysis buffer and Laemmli's sample buffer was added to the samples. The membranes were then blotted with: CFTR clone CF3 (Abcam, ab2784) 1:1000, TG2 (clone CUB7402; NeoMarkers) 1:1000, CHIP (Calbiochem PC711) 1:500, Ubiquitin (Cell Signaling clone P4D1 3936), isopeptide (Abcam 422) 1:1000, PKAR2 (BD 610625) 1:500.
For detection of complex with biotnylated-P31-43 or immune-complex of glutamime-lysine bonds, the beads were resolved in non-reducing and non-denaturating conditions, and then blotted with Streptavidin-HRP (Sigma 52438) 1:3000 or anti-biotin (Abcam ab2103) 1:2500 and anti-isopeptide (Abcam 422) 1:1000.
TG2 enzymatic activity in Caco-2, treated as described above, was detected: 1) by incubating unfixed sections with biotin-mono-dansylcadaverine (MDC, 10 mM, Molecular Probe) for 1 h at room temperature and then stained with Alexa-fluor488-Streptavidin, as previously described (JI2008/2009) or 2) or by incorporation of 5(biotinamido)pentylamines (BAP) into protein substrates. For BAP-incorporation, 2 mM BAP (Soltec Ventures, B110) were directly added into the medium together with the indicated treatments. […]

[1] = system: recombinant human NBD1 (rhNBD1); experiment: Surface plasmon resonance peptide-protein interaction; type: binding; details: rhNBD1 immobilized on chip, different peptide concentrations
Procedure: Peptide-protein interactions were studied using a Biacore™ T100 (GE Healthcare) instrument. hrNBD1 domain or the indicated biotinylated peptides were immobilized by thiol coupling on a CMS (series S) sensor chip to a final density of 2000 resonance units (RU) or by biotin-streptavidin capture on a SA (series S) sensor chip to a final density of 250 RU, respectively. A flow cell with no immobilized protein or peptide was used as control. Binding analysis was carried out at 20° C. in a running buffer consisting of 10 mM HEPES, pH 7.4, 150 mM NaCl, 0.05% (v/v) Tween-20, 2 mM ATP, 5 mM MgCl2, 1 mM DTT applying a flow rate of 20 μl/min. For each experiment a Biacore™ method program was used. It included a series of three start up injections (running buffer), zero control (running buffer) and different concentrations of ligand. […] Each sensorgram (time-course of the surface plasmon resonance signal) was corrected for the response obtained in the control flow cell and normalized to baseline. Data were analysed using the 2.0.3 BIAevaluation software (GE Healthcare). At least three independent experiments for each analysis were performed.
FIG. 2: a, Protein-Protein docking and Molecular Dynamics of P31-43 (violet) bound to NBD1 (orange). Left side: general view of P31-43 and NBD1 interaction. Upper right: detailed interaction pattern, highlighting the most important amino acids. Lower right: in silico NBD1/P31-43 complex compared to the original crystallographic positions of Tip 401 and ATP. b, Graphical view of the in silico sampling percentage of P31-43 against NBD1/NBD2 (left 10 panel), and of P31-43/4QA (4QA) against NBD1 (right panel). c-d, Surface plasmon resonance (SPR) analysis of rhNBD1 binding to P31-43 and P57-68 biotinylated peptides immobilized on SA sensor chip (c) and of increasing concentrations of P31-43 and P57-68 peptides 15 on rhNBD1 covalently bound to the CMS sensor chip (d).

CFTR [2] = target: T2, CFTR (Homo sapiens, UniProt P13569); experiment: Co-immunoprecipitation of biotinylated peptides with CFTR in Caco-2 cells; type: cell-based; details: 1 h with biotinylated peptides
T2 construct: Immunoprecipitations of endogenous proteins were performed on 500 μg of lysates from Caco-2 cells; host or cells: Caco-2, T84
Procedure: Human colon adenocarcinoma-derived Caco-2 and T84 cells were obtained from the ATCC. Cells were maintained in T25 flask in Modified Eagle Medium (MEM) for Caco-2, or Ham's F12+DMEM (1:1) for T84, supplemented with 10% fetal bovine serum (FBS), 2 mM Glutamine+1% Non Essential Amino Acids (NEAA) and the antibiotics penicillin\streptomycin (100 units/ml) (all reagents from Lonza) (Luciani, A., et al. 2010. Cells were grown in Transwells (Corning, 3470 or 3460) under the normal condition (Luciani, A., et al. 2012). Briefly, 8×10^4 or 5×10^5 cells were seeded in 6.5-mm diameter or 12-mm diameter, respectively, and grown until the RT reached 800 to 1,200 Ω·cm2. Transwells with a pore size of 0.4 μm were used. Medium in both the apical and basolateral chambers was changed every other day. […] Cells were also treated with 50 or 100 μg/ml of P57-68 or PGAV peptides for 3 h. Caco-2 or T84 cells were also treated with: CFTR potentiators VX-770 (10 μM) or VX-532 (20 μM) (Selleck chemicals) or Genistein (10 μM) (Sigma-Aldrich) or in presence or absence of CFTR inhibitor172 (CFTRinh172, 20 μM) or 3-methyl-adenine (3-MA, 20 μM) (Calbiochem), Z-DON (20 nM, Zedira) or BAPTA-AM (10 μM, Calbiochem).
The separation of endosomal fractions was performed as described^9 from treated and untreated cells. Protein of endosomal fraction were resolved by SDS-Page and blotted with primary antibodies against Rab-5(Abcam 18211) 1:500, Rab-7(Abcam 77993) 1:500, EEA-1 (Abcam 2900) 1:500, TG2 or CFTR. EEA-1 was used as early endosome marker. For detection of complex with biotnylated-P31-43, the beads were resolved in non-reducing and non-denaturating conditions, and then blotted with Streptavidin-HRP (Sigma S2438) 1:3000 or anti-biotin (Abcam ab2103) 1:2500.

CFTR [3] = target: T2, CFTR; experiment: CFTR channel function in intestinal epithelial cells (forskolin-induced Isc in Ussing chambers; SPQ iodide efflux); type: cell-based; details: 20 μg/ml peptide; intestinal epithelial cells (Caco-2, T84)
Procedure: Human colon adenocarcinoma-derived Caco-2 and T84 cells (Barone, M. V. et al. 2014; Luciani, A. et al. 2010) were obtained from the ATCC. Cells were maintained in T25 flask in Modified Eagle Medium (MEM) for Caco-2, or Ham's F12+DMEM (1:1) for T84, supplemented with 10% fetal bovine serum (FBS), 2 mM Glutamine+1% Non Essential Amino Acids (NEAA) and the antibiotics penicillin\streptomycin (100 units/ml) (all reagents from Lonza). Caco-2 cells were grown in Transwells (Corning, 3470 or 3460) under the normal condition. Briefly, 8×10^4 or 5×10^5 cells were seeded in 6.5-mm diameter or 12-mm diameter, respectively, and grown until the RT reached 800 to 1,200 Ω·cm^2. Transwells with a pore size of 0.4 μm were used. Medium in both the apical and baso lateral chambers was changed every other day. Cells were treated with 20 μg/ml of either with the α-gliadin peptide comprising the P31-43 amino acid sequence of α-gliadin LGQQQPFPPQQPY (SEQ ID 1) (below referred to as P31-43), which is known to induce an enterocyte stress response (Meresse, B. et al.2009; Barone, M. V. et al. 2014; Luciani, A. et al. 2010), the T-cell activating α-gliadin peptide comprising the P57-68 amino acid sequence of α-gliadin (QLQPFPQPQLPY SEQ ID 2)) (below referred to as P57-68) (Maiuri, L., et al. 2003; Meresse, B. et al.2009; 30 Barone, M. V. et al. 2014), or the scrambled GAVAAVGVVAGA (SEQ ID 3) control peptide (below referred to as PGAV), or with different modified P31-43, either biotin-tagged or not, for different time points (from 1 h short challenge up to 24 h). Cells were also treated with 50 or 100 5 μg/ml of P57-68 or PGAV peptides for 3 h.
Caco-2 or T84 cells were also treated with: CFTR potentiators VX-770 (Ivacaftor) (10 μM) or VX-532 (20 μM) (Selleck chemicals) or Genistein (10 μM) (Verkman, A. S. et al. 2005; Jih, K. Y. et al. 2013) (Sigma-Aldrich) or in presence or absence of CFTR inhibitor172 (CFTRinh172, 20 μM).
Human colon adenocarcinoma-derived Caco-2 and T84 cells were obtained from the ATCC. Cells were maintained in T25 flask in Modified Eagle Medium (MEM) for Caco-2, or Ham's F12+DMEM (1:1) for T84, supplemented with 10% fetal bovine serum (FBS), 2 mM Glutamine+1% Non Essential Amino Acids (NEAA) and the antibiotics penicillin\streptomycin (100 units/ml) (all reagents from Lonza) (Luciani, A., et al. 2010. Cells were grown in Transwells (Corning, 3470 or 3460) under the normal condition (Luciani, A., et al. 2012). Briefly, 8×10^4 or 5×10^5 cells were seeded in 6.5-mm diameter or 12-mm diameter, respectively, and grown until the RT reached 800 to 1,200 Ω·cm2. Transwells with a pore size of 0.4 μm were used. Medium in both the apical and basolateral chambers was changed every other day. […]

T2 sequence (P13569 whole entry): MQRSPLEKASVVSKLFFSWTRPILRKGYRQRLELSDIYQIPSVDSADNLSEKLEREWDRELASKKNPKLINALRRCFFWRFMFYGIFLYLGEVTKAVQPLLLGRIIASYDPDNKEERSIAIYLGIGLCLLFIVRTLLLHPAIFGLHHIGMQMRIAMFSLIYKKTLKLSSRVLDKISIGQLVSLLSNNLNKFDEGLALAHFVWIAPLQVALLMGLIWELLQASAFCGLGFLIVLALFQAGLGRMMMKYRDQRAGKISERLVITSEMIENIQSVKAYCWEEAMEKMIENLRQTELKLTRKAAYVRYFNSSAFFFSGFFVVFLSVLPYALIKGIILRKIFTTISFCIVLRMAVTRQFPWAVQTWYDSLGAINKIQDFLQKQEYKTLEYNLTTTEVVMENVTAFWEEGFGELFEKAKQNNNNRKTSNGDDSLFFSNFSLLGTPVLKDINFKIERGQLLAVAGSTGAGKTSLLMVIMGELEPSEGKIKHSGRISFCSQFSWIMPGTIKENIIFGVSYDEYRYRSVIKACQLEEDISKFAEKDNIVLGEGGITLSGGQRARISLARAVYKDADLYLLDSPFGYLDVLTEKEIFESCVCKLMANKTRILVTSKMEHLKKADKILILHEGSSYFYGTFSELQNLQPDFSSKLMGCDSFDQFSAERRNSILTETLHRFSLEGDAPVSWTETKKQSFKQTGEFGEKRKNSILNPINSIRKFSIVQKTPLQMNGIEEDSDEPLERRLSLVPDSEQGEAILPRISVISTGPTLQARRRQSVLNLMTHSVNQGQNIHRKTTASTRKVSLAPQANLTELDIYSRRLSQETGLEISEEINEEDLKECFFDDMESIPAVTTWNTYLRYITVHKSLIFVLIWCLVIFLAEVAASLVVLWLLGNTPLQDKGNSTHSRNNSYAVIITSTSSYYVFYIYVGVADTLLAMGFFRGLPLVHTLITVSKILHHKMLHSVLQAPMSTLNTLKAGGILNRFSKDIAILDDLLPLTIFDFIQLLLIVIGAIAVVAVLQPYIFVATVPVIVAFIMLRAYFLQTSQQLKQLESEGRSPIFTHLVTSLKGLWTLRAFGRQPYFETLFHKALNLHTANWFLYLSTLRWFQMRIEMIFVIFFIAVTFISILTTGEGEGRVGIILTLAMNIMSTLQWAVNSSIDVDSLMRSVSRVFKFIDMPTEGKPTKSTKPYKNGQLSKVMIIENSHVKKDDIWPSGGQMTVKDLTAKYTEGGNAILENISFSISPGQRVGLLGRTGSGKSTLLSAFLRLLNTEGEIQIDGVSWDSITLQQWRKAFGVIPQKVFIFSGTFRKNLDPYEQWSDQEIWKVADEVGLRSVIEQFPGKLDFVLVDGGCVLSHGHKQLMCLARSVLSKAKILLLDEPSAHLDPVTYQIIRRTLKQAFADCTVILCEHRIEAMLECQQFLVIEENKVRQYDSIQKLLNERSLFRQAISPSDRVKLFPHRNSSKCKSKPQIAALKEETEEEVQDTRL

Row | Compound | effect on P31-43-induced interaction of TG2 and CFTR (TG2) | SPR signal on immobilized rhNBD1 [1] | interaction (co-immunoprecipitation) with CFTR (CFTR [2]) | interaction (co-immunoprecipitation) with CFTR (CFTR [2]; listed as Q4A) | reduction of CFTR channel function in response to forskolin (CFTR [3])
1 | CC(=O)OCOC(=O)CN(CC(=O)OCOC(C)=O)c1ccccc1OCCOc1ccccc1N(CC(=O)OCOC(C)=O)CC(=O)OCOC(C)=O [BAPTA-AM] | prevented | – | – | – | –
2 | P57-68: T-cell activating α-gliadin peptide QLQPFPQPQLPY (SEQ ID 2) (P57-68 sequence of alpha-gliadin) | – | failed to induce any signal | – | – | –
3 | 4QA: P31-43 with glutamines at residues 4, 5, 10 and 11 substituted with alanines, LGQAAPFPPAAPY (SEQ ID 4) (P31-43 sequence of alpha gliadin with glutamine residues at positions 4, 5, 10 and 11 substituted with alanines) | – | failed to interact with NBD1 | failed to interact with CFTR | did not co-immunoprecipitate with CFTR | failed to interact with CFTR and to inhibit its function
4 | COC(=O)[C@H](CC(C)C)NC(=O)[C@@H]1CCCN1C(=O)[C@@H](NC(=O)[C@H](CCC(=O)C=[N+]=[N-])NC(=O)OCc1ccccc1)C(C)C [Z-DON] (Cbz-[DON]VPL-OMe) | prevented | – | – | – | –
